Assay results: patent publication US6710047B2, “Phthalazines with angiogenesis inhibiting activity” (Novartis AG, priority 1997, dated 2004)
Where a name gives a salt, the structure may show the parent alone. Read-outs that look alike come from different tables or passages of the source.

Assays:
[1] = molecular target: T1, Flt-1 VEGF-receptor tyrosine kinase (Homo sapiens, UniProt P17948); assay: Test for activity against Flt-1 VEGF-receptor tyrosine kinase
T1 sequence (P17948 827-1158 limits assumed): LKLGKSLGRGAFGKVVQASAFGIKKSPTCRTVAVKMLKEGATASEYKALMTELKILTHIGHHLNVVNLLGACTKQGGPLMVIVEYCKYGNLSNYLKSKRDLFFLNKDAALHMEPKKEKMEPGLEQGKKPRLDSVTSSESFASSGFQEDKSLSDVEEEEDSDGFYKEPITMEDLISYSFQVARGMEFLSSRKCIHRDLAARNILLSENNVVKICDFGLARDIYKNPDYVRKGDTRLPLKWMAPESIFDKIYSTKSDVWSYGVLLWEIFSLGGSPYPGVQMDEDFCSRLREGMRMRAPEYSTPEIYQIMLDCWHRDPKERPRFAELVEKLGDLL
Method: Test for activity against VEGF-receptor tyrosine kinase. The test is conducted using Flt-1 VEGF-receptor tyrosine kinase. […] The reaction is then ended by the addition of 10 μl 0.25 M ethylenediaminetetraacetate (EDTA) pH 7. Using a multichannel dispenser (LAB SYSTEMS, USA), an aliquot of 20 μl is applied to a PVDF (=polyvinyl difluoride) Immobilon P membrane (Millipore, USA), incorporating a Millipore microtiter filter manifold, and connected to a vacuum.
The test is conducted using Flt-1 VEGF-receptor tyrosine kinase, as described hereinabove.

[2] = kinase domain of Flt-1, poly(Glu,Tyr) 4:1, 8 μM [33P]-ATP, 15 minutes at room temperature

Compound	melting point [°C]	IC50 [1] [nM]	IC50 [1, 2] [nM]
Fc1ccc(Nc2nnc(Cc3ccncc3)c3ccccc23)cc1Cl [Example 42, 1-(3-Chloro-4-fluoroanilino)-4-(4-pyridylmethyl)phthalazine]	185 to 187	211	–
COc1ccc(Nc2nnc(Cc3ccncc3)c3ccccc23)cc1 [Example 8, 1-(4-Methoxyanilino)-4-(4-pyridylmethyl)phthalazine]	223 to 224	330	–
Cc1ccc(Nc2nnc(Cc3ccncc3)c3ccccc23)cc1F [Example 44C, 1-(3-Fluoro-4-methylanilino)-4-(4-pyridylmethyl)phthalazine]	210 to 212	42	–
CCc1ccc(Nc2nnc(Cc3ccncc3)c3ccccc23)cc1 [Example 44A, 1-(4-Ethylanilino)-4-(4-pyridylmethyl)phthalazine]	163 to 164	277	–
Fc1cc(Cl)ccc1Nc1nnc(Cc2ccncc2)c2ccccc12 [Example 44D, 1-(4-Chloro-2-fluoroanilino)-4-(4-pyridylmethyl)phthalazine]	157 to 159	317	–
c1ccc(COc2cccc(Nc3nnc(Cc4ccncc4)c4ccccc34)c2)cc1 [Example 9, 1-(3-Benzyloxyanilino)-4-(4-pyridylmethyl)phthalazine]	142 to 143	970	–
N#Cc1ccc(Nc2nnc(Cc3ccncc3)c3ccccc23)cc1 [Example 24, 1-(4-Cyanoanilino)-4-(4-pyridylmethyl)phthalazine]	228 to 230	666	–
Cc1ccc(Nc2nnc(Cc3ccncc3)c3ccccc23)cc1C [Example 45]	180 to 181	345	–
Cc1cc(C)cc(Nc2nnc(Cc3ccncc3)c3ccccc23)c1 [Example 46, 1-(3,5-Dimethylanilino)-4-(4-pyridylmethyl)phthalazine]	174 to 175	349	–
c1ccc2c(NC3CCCCC3)nnc(Cc3ccncc3)c2c1 [Example 57, 1-Cyclohexylamino-4-(4-pyridylmethyl)phthalazine]	137 to 139	16000	–
Oc1ccc(Nc2nnc(Cc3ccncc3)c3ccccc23)cc1 [Example 19, 1-(4-Hydroxyanilino)-4-(4-pyridylmethyl)phthalazine]	239 to 241	730	–
Cc1cc(Cc2nnc(Nc3ccc(Cl)cc3)c3ccccc23)ccn1 [Example 44F, 1-(4-Chloroanilino)-4-[(2-methyl-4-pyridyl)methyl]phthalazine]	158 to 159	–	624
Clc1ccc(Sc2nnc(Cc3ccncc3)c3ccccc23)cc1 [Example 72E]	204 to 206	1200	–
c1ccc2c(NC3CCCC3)nnc(Cc3ccncc3)c2c1 [Example 58, 1-Cyclopentylamino-4-(4-pyridylmethyl)phthalazine]	163 to 165	7300	–
Clc1ccc(Oc2nnc(Cc3ccncc3)c3ccccc23)cc1 [Example 72B]	207 to 208	284	–
COc1ccccc1Nc1nnc(Cc2ccncc2)c2ccccc12 [Example 14, 1-(2-Methoxyanilino)-4-(4-pyridylmethyl)phthalazine]	190 to 191	740	–
FC(F)(F)Oc1cccc(Nc2nnc(Cc3ccncc3)c3ccccc23)c1 [Example 67H]	176 to 178	615	–
CCOc1cccc(Nc2nnc(Cc3ccncc3)c3ccccc23)c1 [Example 67F]	193 to 195	1200	–
COc1ccc(Nc2nnc(Cc3ccncc3)c3ccccc23)cc1Cl [Example 23, 1-(3-Chloro-4-methoxyanilino)-4-(4-pydridylmethyl)phthalazine]	195 to 197	515	–
Cc1cccc(Nc2nnc(Cc3ccncc3)c(C)c2C)c1 [Example 82E, 3-(3-methylanilino)-4,5-dimethyl-6-(pyridin-4-yl)methylpyridazine]	–	2500	–
Clc1ccc(Nc2nnc(Cc3ccncc3)c3ccncc23)cc1 [Example 76, 4-(4-Chloroanilino)-1-(4-pyridylmethyl)pyrido[3,4-d]pyridazine]	220 to 221	3200	–
c1ccc(CNc2nnc(Cc3ccncc3)c3ccccc23)cc1 [Example 7, 1-Benzylamino-4-(4-pyridylmethyl)phthalazine]	137 to 138	640	–
Cc1ccc(Nc2nnc(Cc3ccncc3)c3ccccc23)cc1O [Example 67B]	–	335	–
Brc1ccc(Nc2nnc(Cc3ccncc3)c3ccccc23)cc1 [Example 22, 1-(4-Bromoanilino)-4-(4-pyridylmethyl)phthalazine]	201 to 202	180	–

Compound	melting point [°C]	IC50 [1] [nM]	IC50 [1, 2] [nM]
Oc1cccc(Oc2nnc(Cc3ccncc3)c3ccccc23)c1 [Example 56, 1-(3-Hydroxyphenoxy)-4-(4-pyridylmethyl)phthalazine]	206 to 207	1000	–
FC(F)(F)c1ccc(Nc2nnc(Cc3ccncc3)c3ccccc23)cc1 [Example 16, 1-(4-Trifluoromethylanilino)-4-(4-pyridylmethyl)phthalazine]	205 to 206	520	–
Clc1ccc(Nc2nnc(Cc3ccncc3)c3cccnc23)cc1 [Example 74, 8-(4-Chloroanilino)-5-(4-pyridylmethyl)pyrido[2,3-d]pyridazine]	196 to 197	1000	–
Cc1ccc(Oc2nnc(Cc3ccncc3)c3ccccc23)cc1 [Example 72C]	175 to 176	747	–
CC1(c2ccc(Nc3nnc(Cc4ccncc4)c4ccccc34)cc2)OCCO1 [Example 70B, 1-[(2′-methyl-1′,3′-dioxolan-2′-yl)-anilino]-4-(4-pyridylmethyl)phthalazine]	–	–	1000
Clc1ccc(Nc2nnc(Cc3ccncn3)c3ccccc23)cc1 [Example 66, 1-(4-Chloroanilino)-4-(4-pyrimidinylmethyl)phthalazine]	174 to 176	2400	–
Cc1ccc(Nc2nnc(Cc3ccncc3)c3ccccc23)cc1 [Example 37, 1-(4-Methylanilino)-4-(4-pyridylmethyl)phthalazine]	152 to 153	154	–
CCOc1ccc(Nc2nnc(Cc3ccncc3)c3ccccc23)cc1 [Example 44E, 1-(4-Ethoxyanilino)-4-(4-pyridylmethyl)phthalazine]	223 to 224	490	–
COc1cccc(Nc2nnc(Cc3ccncc3)c3ccc(N)cc23)c1 [Example 32F]	–	793	–
CC(=O)c1cccc(Nc2nnc(Cc3ccncc3)c3ccccc23)c1 [Example 70A, 1-(3-Acetylanilino)-4-(4-pyridylmethyl)phthalazine]	–	1000	–
Cc1cccc(Nc2nnc(Cc3ccncc3)c3ccccc23)c1 [Example 43, 1-(3-Methylanilino)-4-(4-pyridylmethyl)phthalazine]	141 to 143	9070	–
Clc1ccc(Nc2nnc(Cc3ccncc3)c3ncccc23)cc1 [Example 73, 5-(4-Chloroanilino)-8-(4-pyridylmethyl)pyrido[2,3-d]pyridazine]	220 to 222	397	–
Clc1cccc(Nc2nnc(Cc3ccncc3)c3ccccc23)c1 [Example 5, 1-(3-Chloroanilino)-4-(4-pyridylmethyl)phthalazine 1,8 hydrochloride]	–	210	–
Clc1ccc(Nc2nnc(Cc3ccncc3)c3c2CCCC3)cc1 [Example 44H, 1-(4-Chloroanilino) 4-(4-pyridylmethyl)-5,6,7,8-tetrahydrophthalazine]	181 to 183	11400	–
CC(=O)c1ccc(Nc2nnc(Cc3ccncc3)c3ccccc23)cc1O [Example 69]	234 to 236	742	–
CCc1cccc(Nc2nnc(Cc3ccncc3)c3ccccc23)c1 [Example 67E]	143 to 144	440	–
CS(=O)(=O)O.CS(=O)(=O)O.CS(=O)(=O)O.Nc1cccc(Nc2nnc(Cc3ccncc3)c3ccccc23)c1 [Example 20, 1-(3-Aminoanilino)-4-(4-pyridylmethyl)phthalazine trimesylate]	249 to 251	500	–
Nc1ccc2c(Cc3ccncc3)nnc(Nc3ccc(Cl)cc3)c2c1 [Example 32A, 7-Amino-1-(4-chloroanilino)-4-(4-pyridylmethyl)phthalazine hydrochloride]	–	42	–
CSc1cccc(Nc2nnc(Cc3ccncc3)c3ccccc23)c1 [Example 67D]	148 to 149	401	–
CCCc1ccc(Nc2nnc(Cc3ccncc3)c3ccccc23)cc1 [Example 44B, 1-(4-Propylanilino)-4-(4-pyridylmethyl)phthalazine]	180 to 181	234	–
Clc1ccc(Nc2nnc(Cc3ccncc3)c3cnccc23)cc1 [Example 75, 1-(4-Chloroanilino)-4-(4-pyridylmethyl)pyrido[3,4-d]pyridazine]	227 to 228	1000	–
COc1ccc(Oc2nnc(Cc3ccncc3)c3ccccc23)cc1 [Example 72D]	194 to 196	593	–
Clc1ccc(Nc2nnc(OCc3ccncc3)c3ccccc23)cc1 [Example 50, 1-(4-Chloroanilino)-4-(4-pyridylmethoxy)phthalazine]	139 to 141	195	–
